Key:
[1] = Inhibition of DOT1L in human MV4-11 cells assessed as reduction in cell viability after 72 hrs by alamar blue assay
[2] = Inhibition of DOT1L in human THP-1 cells assessed as reduction in cell viability after 72 hrs by alamar blue assay
[3] = Inhibition of DOT1L in human KOPN8 cells assessed as reduction in cell viability after 72 hrs by alamar blue assay

SMILES: Brc1cccc(-c2nn3c(Cn4cnc5ccccc54)nnc3s2)c1
- IC50 [1]: 26.8 µM

SMILES: c1ccc2c(c1)nnn2Cc1nnc2sc(-c3ccc4c(c3)OCCO4)nn12 [1-{[6-(2,3-dihydro-1,4-benzodioxin-6-yl)[1,2,4]triazolo[3,4-b][1,3,4]thiadiazol-3-yl]methyl}-1H-1,2,3-benzotriazole]
- IC50 [1]: 40.7 µM

SMILES: CC(C)(C)c1ccc(-c2nn3c(Cn4nnc5ccccc54)nnc3s2)cc1
- IC50 [1]: 13.1 µM

SMILES: Fc1cccc(-c2nn3c(Cn4nnc5ccccc54)nnc3s2)c1
- IC50 [1]: 21.9 µM
- IC50 [2]: 55.8 µM
- IC50 [3]: 28.1 µM

SMILES: COc1cccc(-c2nn3c(Cn4nnc5ccccc54)nnc3s2)c1
- IC50 [1]: 64.2 µM

SMILES: c1ccc2c(c1)nnn2Cc1nnc2sc(-c3ccc4c(c3)OCO4)nn12
- IC50 [1]: 6.75 µM

SMILES: Cc1ccc(-c2nn3c(Cn4cnc5ccccc54)nnc3s2)cc1C
- IC50 [1]: 64 µM

SMILES: Fc1ccc(-c2nn3c(Cn4nnc5ccccc54)nnc3s2)cc1
- IC50 [1]: 8 µM

SMILES: c1ccc(Cc2nn3c(Cn4nnc5ccccc54)nnc3s2)cc1 [3-(1-benzotriazolylmethyl)-6-(phenylmethyl)-[1,2,4]triazolo[3,4-b][1,3,4]thiadiazole]
- IC50 [1]: 48.8 µM

Source: BindingDB's records for doi:10.1021/acs.jmedchem.6b01785 (Chinese Academy of Sciences, 2017)
